# Results: patent publication US5750146A, “Translucent collagen formulations with a cytotoxic drug” (Matrix Pharmaceutical, Inc., priority 1995, dated 1998)
# What was measured:
# Format in all cases: physicochemical
# collagen = experiment: Differential Scanning Calorimetry (DSC) scan of collagen transition temperature; conditions: for compatibility of cytotoxic drug with collagen: judged from collagen transition temperature
# Experimental: The phase change is typically a change in the fibril size of the collagen in the composition and can be readily determined by a peak in conventional Differential Scanning Calorimetry (DSC) scans of the aqueous collagen composition. For the purposes of this application, transition temperatures measured by DSC are determined under the following conditions: heating at 10°C. per minute at 25 psi nitrogen (N2) using a DSC 10 instrument available from TA Industries, New Castle, Del., USA.
# An aqueous collagen composition was prepared by combining requisite amounts of components under aseptic conditions to provide for an aqueous collagen composition comprising 6.5 weight percent collagen, 0.1M sodium phosphates and 0.045M sodium chloride. A DSC scan of the resulting composition was conducted by adding an aliquot of the composition to the sample holder (DSC pan), hermetically sealing the sample holder, and then placing the holder into a Differential Scanning Calorimeter (Model No. DSC 10 available from TA Instruments, New Castle, Del., USA). The calorimeter measures the transition temperature correlating to a phase change in the collagen composition by recording the temperature where excess heat over baseline is either absorbed or released by the composition.
# The DSC scan of this composition was then conducted at from 30° to 70° C. at the rate of 10° C. per minute and the results are illustrated in FIG. 1.
# Two additional aqueous compositions were prepared as above with the exception that fluorouracil was incorporated into each of these compositions and the resulting composition comprised collagen (2.2 weight percent), fluorouracil (33.3 mg/mL), 0.033M sodium phosphates and 0.015 M sodium chloride. The compositions were formulated by mixing under aseptic conditions, until homogeneous, 1 volume of an aqueous collagen composition comprising 6.5 weight percent collagen, 0.1M sodium phosphate and 0.045M sodium chloride with 2 volumes of a fluorouracil solution (50 mg/mL) at ambient conditions by recirculation through a static mixer and with magnetic stirring. […]
# [1] = optical appearance of aqueous collagen compositions on storage
# Experimental: Mixing was conducted by repeated transfers between two syringes connected by a mixing adapter. […] The results of these scans are illustrated in FIG. 5 and 6, respectively.
# A second study was conducted to determine the amount of fluorouracil required to effect clarification on an opaque aqueous collagen composition. Specifically, aqueous collagen compositions were formulated to contain collagen (21.7 mg/mL), 0.033M phosphate buffer and varying amounts of fluorouracil. Each composition was then stored at about 2° C. to 8° C. for 17 days and the optical appearance of the composition measured periodically.
# Specifically, in this example, the concentration of methotrexate in the collagen composition was varied and the collagen compositions were stored for 1 day and 3 days at either at 2° C. to 8° C. or at room temperature. The results at 3 days were the same as those found after 1 day and, accordingly, Table III below sets forth only the results from day 1.
# A second study was conducted by preparing collagen compositions having 0.033M potassium phosphate buffer and […]. The pH of the solution was adjusted by the addition of HCl or NaOH as necessary to modify the pHs of the compositions to approximately 5, 7, 8 and 9. The compositions were stored at either room temperature or at 2-8° C. The optical appearance of these compositions was evaluated at 1 and 11 days after storage.
# [2] = optical absorbance at 410 nm (optical opacity) of aqueous collagen compositions, 1 mm pathlength; conditions: 0.25M additive, 6.5 weight percent collagen, pH 9.1, 2° to 8° C., 10 minutes
# Experimental: Aliquots (0.5 mL) of each of the compositions were placed in microcuvet having a 1 mm pathlength at different temperatures for 10 minutes wherein the first aliquot was stored at about 12° C, the second aliquot was stored at about 8° C. and the third aliquot was stored at about 4° C. The optical opacity of each sample was then measured at 30 second intervals by determining the absorbance of light (410 nm) through the microcuvet. Lower absorbance in each case corresponds to greater optical clarity at 410 nm.
# Three identical aqueous collagen compositions were prepared as above with the exception that the amount of fluorouracil incorporated into the compositions were varied to be 16.65 mg/mL, 22.2 mg/mL and 33.3 mg/mL respectively. The resulting compositions were stored at 4° C. as aliquots (0.5 mL) in microcuvets having a 1 mm pathlength for 10 minutes and the optical opacity of each sample was measured at 30 second intervals by determining the absorbance of light (410 nm) through the microcuvet. Lower absorbance in each case corresponds to greater optical clarity at 410 nm.
# Both compositions were then stored at from about 2° to 8° C. as aliquots (0.5 mL) in microcuvets having a 1 mm pathlength for 10 minutes and the optical opacity of each sample was measured at 15 second intervals by determining the absorbance of light (410 nm) through the microcuvet. […]
smiles,measurement,setting,value
CN(Cc1cnc2nc(N)nc(N)c2n1)c1ccc(C(=O)N[C@@H](CCC(=O)O)C(=O)O)cc1 [methotrexate],compatibility of cytotoxic drug with collagen,collagen,compatible cytotoxic drug
same,effect of refrigeration and high concentration on optical clarity,"[1]; refrigeration, high concentrations of methotrexate",both refrigeration and high concentrations of methotrexate are effective in effecting optical clarity
"N.N.[Cl][Pt][Cl] [cisplatin, cis-diamino dichlororplatinum (II)]",cross-linking to collagen (increase in transition temperature over time),"collagen; room temperature, up to 8 hours","cross-linking (i.e., covalent bonding) of the cisplatin to the collagen"
"O=c1[nH]cc(F)c(=O)[nH]1 [fluorouracil, 5-fluoro-2,4-(1H, 3H)pyrimidinedione]",compatibility of cytotoxic drug with collagen,collagen,compatible cytotoxic drug
same,clarifying effect on opaque collagen composition,"[1]; fluorouracil at 20 mg/mL, 2° C. to 8° C.",some clarifying affect on the opaque collagen composition
same,effect of additive on clarifying the collagen composition (FIG. 11),[2],only fluorouracil has any significant effect on clarifying the collagen composition
